The target in one test is T1, p110 delta (Homo sapiens, UniProt O00329).
T1 construct: purchased Upstate Group, Millipore; Dundee, UK
As to the kind of experiment: PI3K Isoform Inhibition Assay, p110 delta. It is filed as biochemical. To be noted: PI3K isoform inhibition assay of Example 901. As to the method:
(§1) PI3K enzymatic activity was assayed by measuring the amount of product phosphatidylinositol […] (PIP3) formed from substrate 4,5 phosphatidylinositol 4,5-phosphate (PIP2) using a fluorescence polarization displacement assay. The decrease in fluorescence polarization of a fluorescent PIP3 probe is measured as it is displaced from a PIP3-binding protein GRP-1 detector by PI3K-catalyzed product. […] The kinase reactions were initiated by the addition of 40 ng/mL p110α/p85α, 300 ng/mL p110β/p85α, 40 ng/mL p110γ, or 40 ng/mL […] (Upstate Group, Millipore; Dundee, UK), and 10 μM PIP2 (Echelon Biosciences) to the wells. […] After 60 minutes of incubation at room temperature to allow equilibration of labeled and unlabeled PIP3 binding, the parallel and perpendicular components of the fluorescence emissions from each sample were measured at an excitation wavelength of 530 nm and an emission wavelength of 590 nm using an Envision fluorescent plate reader with a rhodamine filter (PerkinElmer Life and Analytical Sciences; Wellesley, Mass.). The assay is capable of detecting 0.1-2.0 μM PIP3 product. The IC50 values were obtained by fitting the dose-dependent inhibition data to a 4-parameter equation using Assay Explorer software (MDL, San Ramon, Calif.).
(§2) The Formula I compound was serially diluted in 100% DMSO. The kinase reaction was incubated for 1 h at room temperature, and the reaction was terminated by the addition of PBS. IC50 values were subsequently determined using sigmoidal dose-response curve fit (variable slope).
The four Class I PI 3-kinases are cloned into baculovirus vectors as follows: […]

The target of the next test is T2, p110 alpha (Homo sapiens, UniProt P42336).
T2 construct: purchased Upstate Group, Millipore; Dundee, UK
T2 sequence (P42336 whole entry): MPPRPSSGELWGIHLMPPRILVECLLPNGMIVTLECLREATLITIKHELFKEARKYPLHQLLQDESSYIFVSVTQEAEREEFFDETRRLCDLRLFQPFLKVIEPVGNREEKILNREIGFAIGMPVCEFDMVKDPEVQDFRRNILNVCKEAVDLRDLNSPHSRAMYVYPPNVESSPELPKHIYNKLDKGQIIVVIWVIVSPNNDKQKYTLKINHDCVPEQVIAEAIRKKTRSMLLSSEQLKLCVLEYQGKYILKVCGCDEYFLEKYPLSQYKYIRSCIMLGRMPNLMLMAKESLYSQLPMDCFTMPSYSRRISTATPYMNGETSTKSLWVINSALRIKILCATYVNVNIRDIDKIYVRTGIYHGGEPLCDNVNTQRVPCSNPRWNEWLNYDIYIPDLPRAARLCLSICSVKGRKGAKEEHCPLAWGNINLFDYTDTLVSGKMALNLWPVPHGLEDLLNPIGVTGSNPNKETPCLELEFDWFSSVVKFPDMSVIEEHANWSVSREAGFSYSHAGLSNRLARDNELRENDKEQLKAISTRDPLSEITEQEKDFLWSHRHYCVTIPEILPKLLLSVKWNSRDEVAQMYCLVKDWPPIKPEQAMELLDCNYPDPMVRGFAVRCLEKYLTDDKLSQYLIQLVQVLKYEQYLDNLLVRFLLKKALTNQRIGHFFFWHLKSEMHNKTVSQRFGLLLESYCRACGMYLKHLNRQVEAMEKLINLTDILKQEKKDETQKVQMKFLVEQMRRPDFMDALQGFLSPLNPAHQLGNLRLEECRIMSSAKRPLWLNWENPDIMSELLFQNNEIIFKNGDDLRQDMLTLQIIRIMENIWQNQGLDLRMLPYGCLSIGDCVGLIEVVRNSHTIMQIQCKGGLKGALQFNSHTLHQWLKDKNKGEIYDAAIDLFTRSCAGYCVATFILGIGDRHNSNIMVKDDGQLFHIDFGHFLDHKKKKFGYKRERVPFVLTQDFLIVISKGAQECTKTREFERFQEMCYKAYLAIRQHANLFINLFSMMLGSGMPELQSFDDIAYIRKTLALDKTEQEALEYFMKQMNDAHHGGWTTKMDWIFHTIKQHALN
T2 sequence (P27986 whole entry partner): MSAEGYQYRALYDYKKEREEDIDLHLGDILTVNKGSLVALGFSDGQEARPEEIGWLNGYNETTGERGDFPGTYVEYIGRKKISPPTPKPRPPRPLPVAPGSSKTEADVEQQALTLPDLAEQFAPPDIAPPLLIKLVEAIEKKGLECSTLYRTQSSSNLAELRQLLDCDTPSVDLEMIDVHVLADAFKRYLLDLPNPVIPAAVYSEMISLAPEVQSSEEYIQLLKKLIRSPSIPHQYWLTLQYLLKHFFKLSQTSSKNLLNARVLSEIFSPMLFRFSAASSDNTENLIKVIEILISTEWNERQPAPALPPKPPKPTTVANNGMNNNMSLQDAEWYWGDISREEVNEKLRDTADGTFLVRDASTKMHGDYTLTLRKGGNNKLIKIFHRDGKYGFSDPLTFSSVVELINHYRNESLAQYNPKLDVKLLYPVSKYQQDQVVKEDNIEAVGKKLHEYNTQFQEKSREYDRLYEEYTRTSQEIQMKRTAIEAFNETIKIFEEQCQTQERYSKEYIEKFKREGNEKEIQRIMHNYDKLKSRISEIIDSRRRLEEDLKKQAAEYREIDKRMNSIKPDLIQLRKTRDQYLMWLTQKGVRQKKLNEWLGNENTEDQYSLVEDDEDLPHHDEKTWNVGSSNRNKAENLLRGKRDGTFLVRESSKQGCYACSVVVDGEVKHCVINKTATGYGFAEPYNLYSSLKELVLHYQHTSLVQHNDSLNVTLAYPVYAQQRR
Put plainly: PI3K Isoform Inhibition Assay, p110 alpha (delta/alpha selectivity). The note with it: ratio of biochemical IC50 values. The procedure: as §1, §2
The same protocol may be used to establish IC50 values for p110α (alpha) PI3K binding. […]

T1 sequence (O00329 whole entry): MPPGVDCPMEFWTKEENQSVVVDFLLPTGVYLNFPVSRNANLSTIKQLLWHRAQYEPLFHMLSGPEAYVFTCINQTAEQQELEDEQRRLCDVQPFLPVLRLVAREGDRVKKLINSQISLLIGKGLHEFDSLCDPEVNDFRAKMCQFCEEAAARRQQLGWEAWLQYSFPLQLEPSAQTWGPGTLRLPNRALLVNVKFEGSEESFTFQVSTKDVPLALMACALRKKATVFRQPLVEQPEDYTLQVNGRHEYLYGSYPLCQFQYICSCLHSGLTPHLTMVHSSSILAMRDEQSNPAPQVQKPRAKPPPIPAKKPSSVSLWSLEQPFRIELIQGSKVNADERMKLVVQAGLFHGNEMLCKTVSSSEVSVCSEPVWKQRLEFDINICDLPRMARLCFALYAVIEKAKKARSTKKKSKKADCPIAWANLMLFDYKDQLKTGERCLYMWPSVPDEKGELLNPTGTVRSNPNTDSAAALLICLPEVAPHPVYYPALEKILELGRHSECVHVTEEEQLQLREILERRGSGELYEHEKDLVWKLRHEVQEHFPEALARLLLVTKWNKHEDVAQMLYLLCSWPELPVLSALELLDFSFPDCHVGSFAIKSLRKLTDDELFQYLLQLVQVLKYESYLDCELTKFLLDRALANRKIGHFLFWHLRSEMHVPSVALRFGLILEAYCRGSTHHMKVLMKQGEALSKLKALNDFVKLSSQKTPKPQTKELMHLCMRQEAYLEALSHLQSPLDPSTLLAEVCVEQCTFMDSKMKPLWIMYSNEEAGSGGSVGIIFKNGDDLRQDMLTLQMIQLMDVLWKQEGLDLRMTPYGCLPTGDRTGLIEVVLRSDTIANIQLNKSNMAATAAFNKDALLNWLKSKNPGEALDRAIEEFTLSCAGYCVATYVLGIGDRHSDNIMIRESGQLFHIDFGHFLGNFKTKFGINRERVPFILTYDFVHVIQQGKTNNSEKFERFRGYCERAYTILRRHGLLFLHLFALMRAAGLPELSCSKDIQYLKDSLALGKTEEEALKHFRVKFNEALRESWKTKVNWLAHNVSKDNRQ
T1 sequence (P27986 whole entry partner): as the sequence (P27986 whole entry partner) above

Take `CC(C)(O)CNCc1ccc2nc(-c3c(F)ccc4[nH]ccc34)nc(N3CCOCC3)c2n1` [Compound 143, 1-((2-(5-fluoro-1H-indol-4-yl)-4-morpholinopyrido[3,2-d]pyrimidin-6-yl)methylamino)-2-methylpropan-2-ol]: on p110 delta, half-maximal inhibition (IC50) required 35.9 nM. The “IC50 p110 alpha/IC50 p110 delta” value at p110 alpha came to 58.
In the same order, the values of `CC(C)(O)C1CCN(Cc2ccc3nc(-c4cnc(N)nc4)nc(N4CCOCC4)c3n2)CC1` [Compound 107, 2-(1-((2-(2-aminopyrimidin-5-yl)-4-morpholinopyrido[3,2-d]pyrimidin-6-yl)methyl)piperidin-4-yl)propan-2-ol] are 2.57 nM and 5.4.
In the same order, the values of `CC(C)(O)C1CCN(Cc2ccc3nc(-n4c(C(F)(F)F)nc5ccccc54)nc(N4CCOCC4)c3n2)CC1` [Compound 156, 2-(1-((4-morpholino-2-(2-(trifluoromethyl)-1H-benzo[d]imidazol-1-yl)pyrido[3,2-d]pyrimidin-6-yl)methyl)piperidin-4-yl)propan-2-ol] are 2.86 nM and 42.
For the compound `CC(C)(C(N)=O)N1CCN(Cc2ccc3nc(-c4c[nH]c5ccccc45)nc(N4CCOCC4)c3n2)CC1` [Compound 123, 2-(4-((2-(1H-indol-3-yl)-4-morpholinopyrido[3,2-d]pyrimidin-6-yl)methyl)piperazin-1-yl)-2-methylpropanamide], inhibition against p110 delta was half-maximal at 4.48 nM (IC50). Besides, the “IC50 p110 alpha/IC50 p110 delta” value on p110 alpha is 55.
For `Fc1ccc2[nH]ccc2c1-c1nc(N2CCOCC2)c2nc(CN3CC(C4CCOCC4)C3)ccc2n1` [Compound 111, 4-(2-(5-fluoro-1H-indol-4-yl)-6-((3-(tetrahydro-2H-pyran-4-yl)azetidin-1-yl)methyl)pyrido[3,2-d]pyrimidin-4-yl)morpholine], in that order: 5.32 nM and 281.
In the same order, the values of `CC(F)(F)c1nc2ccccc2n1-c1nc(N2CCOCC2)c2nc(CN3CCC(C(C)(C)O)CC3)ccc2n1` [Compound 120, 2-(1-((2-(2-(1,1-difluoroethyl)-1H-benzo[d]imidazol-1-yl)-4-morpholinopyrido[3,2-d]pyrimidin-6-yl)methyl)piperidin-4-yl)propan-2-ol] are 2.31 nM and 45.
In the same order, the values of `O=C1CN(C2CN(Cc3ccc4nc(-c5c(F)ccc6[nH]ccc56)nc(N5CCOCC5)c4n3)C2)CCN1` [Compound 127, 4-(1-((2-(5-fluoro-1H-indol-4-yl)-4-morpholinopyrido[3,2-d]pyrimidin-6-yl)methyl)azetidin-3-yl)piperazin-2-one] are 1.75 nM and 141.
With `CC(C)c1nc2ccccc2n1-c1nc(N2CCOCC2)c2nc(C(=O)N3CCC(C(C)(C)O)CC3)ccc2n1` [Compound 119, (4-(2-hydroxypropan-2-yl)piperidin-1-yl)(2-(2-isopropyl-1H-benzo[d]imidazol-1-yl)-4-morpholinopyrido[3,2-d]pyrimidin-6-yl)methanone], half-maximal inhibition on p110 delta (IC50) was put at 87.8 nM. For the same compound, at p110 alpha, the “IC50 p110 alpha/IC50 p110 delta” value is listed as 15.
In the same order, the values of `CC(C)c1nc2ccccc2n1-c1nc(N2CCOCC2)c2nc(CN3CC(C4CCOCC4)C3)ccc2n1` [Compound 113, 4-(2-(2-isopropyl-1H-benzo[d]imidazol-1-yl)-6-((3-(tetrahydro-2H-pyran-4-yl)azetidin-1-yl)methyl)pyrido[3,2-d]pyrimidin-4-yl)morpholine] are 8.52 nM and 28.4.
For `CC(C)n1ncnc1-c1ccc2nc(-c3c(F)ccc4[nH]ccc34)nc(N3CCOCC3)c2n1` [Compound 141, 4-(2-(5-fluoro-1H-indol-4-yl)-6-(1-isopropyl-1H-1,2,4-triazol-5-yl)pyrido[3,2-d]pyrimidin-4-yl)morpholine], in that order: 63.6 nM and 9.4.
With `Cc1cc2ccccc2n1-c1nc(N2CCOCC2)c2nc(CN3CCC(C(C)(C)O)CC3)ccc2n1` [Compound 135, 2-(1-((2-(2-methyl-1H-indol-1-yl)-4-morpholinopyrido[3,2-d]pyrimidin-6-yl)methyl)piperidin-4-yl)propan-2-ol], on p110 delta, 25.6 nM corresponded to half-maximal inhibition (IC50). Besides, on p110 alpha, the “IC50 p110 alpha/IC50 p110 delta” value stood at 82.
`CC(C)(C(N)=O)N1CCN(Cc2ccc3nc(-c4ccc(N)nc4)nc(N4CCOCC4)c3n2)CC1` [Compound 124, 2-(4-((2-(6-aminopyridin-3-yl)-4-morpholinopyrido[3,2-d]pyrimidin-6-yl)methyl)piperazin-1-yl)-2-methylpropanamide]: half-maximal inhibition on p110 delta (IC50) was put at 2.03 nM. The “IC50 p110 alpha/IC50 p110 delta” value on p110 alpha is reported as 14.
For `OCc1ccc2nc(-c3c(F)ccc4[nH]ccc34)nc(N3CCOCC3)c2n1` [Compound 108, (2-(5-fluoro-1H-indol-4-yl)-4-morpholinopyrido[3,2-d]pyrimidin-6-yl)methanol], in that order: 26.5 nM and 13.5.
For `Cc1cc(Nc2nc(N3CCOCC3)c3nc(CN4CCC(C(C)(C)O)CC4)ccc3n2)n[nH]1` [Compound 106, 2-(1-((2-(5-methyl-1H-pyrazol-3-ylamino)-4-morpholinopyrido[3,2-d]pyrimidin-6-yl)methyl)piperidin-4-yl)propan-2-ol], in that order: 66.9 nM and 31.
On p110 delta, `Fc1ccc2[nH]ccc2c1-c1ccc2nc(N3CCOCC3)nc(N3CCOCC3)c2n1` [Compound 159, 4,4′-(6-(5-fluoro-1H-indol-4-yl)pyrido[3,2-d]pyrimidine-2,4-diyl)dimorpholine] had a half-inhibitory concentration (IC50) of 873 nM. In addition, on p110 alpha, the “IC50 p110 alpha/IC50 p110 delta” value came to 1.4.
Turning to `CC(C)(O)C1CCN(Cc2ccc3nc(-n4ccc5ccccc54)nc(N4CCOCC4)c3n2)CC1` [Compound 128, 2-(1-((2-(1H-indol-1-yl)-4-morpholinopyrido[3,2-d]pyrimidin-6-yl)methyl)piperidin-4-yl)propan-2-ol], the IC50 against p110 delta was 81.9 nM. The “IC50 p110 alpha/IC50 p110 delta” value at p110 alpha is 26.
As to `Fc1ccc2[nH]ccc2c1-c1nc(N2CCOCC2)c2nc(CN3CCC(C4COC4)CC3)ccc2n1` [Compound 130, 4-(2-(5-fluoro-1H-indol-4-yl)-6-((4-(oxetan-3-yl)piperidin-1-yl)methyl)pyrido[3,2-d]pyrimidin-4-yl)morpholine], on p110 delta, the midpoint of inhibition, the IC50, lay at 3.12 nM. For the same compound, at p110 alpha, the “IC50 p110 alpha/IC50 p110 delta” value came out at 352.
In the same order, the values of `Nc1ncc(-c2nc(N3CCOCC3)c3ncc(C4CC4)cc3n2)cn1` [Compound 198, 5-(7-cyclopropyl-4-morpholinopyrido[3,2-d]pyrimidin-2-yl)pyrimidin-2-amine] are 3.88 nM and 0.27.
`CC(C)(O)C1CCN(C(=O)c2ccc3nc(-c4c(F)ccc5[nH]ccc45)nc(N4CCOCC4)c3n2)CC1` [Compound 118, (2-(5-fluoro-1H-indol-4-yl)-4-morpholinopyrido[3,2-d]pyrimidin-6-yl)(4-(2-hydroxypropan-2-yl)piperidin-1-yl)methanone] yielded a half-maximal inhibitory concentration (IC50) on p110 delta of 13 nM. Further, on p110 alpha, the “IC50 p110 alpha/IC50 p110 delta” value is reported as 77.
In the same order, the values of `CC(C)(O)C1CCN(Cc2ccc3nc(-n4c(C5CC5)nc5ccccc54)nc(N4CCOCC4)c3n2)CC1` [Compound 102, 2-(1-((2-(2-cyclopropyl-1H-benzo[d]imidazol-1-yl)-4-morpholinopyrido[3,2-d]pyrimidin-6-yl)methyl)piperidin-4-yl)propan-2-ol] are 7.94 nM and 71.
